Laboratory results from US20140249135A1, “PIM KINASE INHIBITORS AND METHODS OF THEIR USE” (NOVARTIS AG, priority 2007, published 2014).
Like-named read-outs stand apart in the source and are kept apart here.

Key:
Format in all cases: biochemical
Pim1 kinase = Pim1 kinase (Homo sapiens, UniProt P11309); test: Pim1 ATP depletion assay;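 note: Luciferase-luciferin luminescence readout of residual ATP after PIM1 transfers phosphate to a peptide substrate, 40 µM ATP added, reaction run to roughly half ATP consumption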
Pim2 kinase = Pim2 kinase (Homo sapiens, UniProt Q9P1W9); test: Pim2 ATP depletion assay; settings: read-out: PIM2 IC50;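 note: Luciferase-based luminescent readout of ATP remaining after PIM2 phosphorylates a BAD peptide, final 5 nM enzyme, 4 µM ATP, 10 µM peptide, 2.5% DMSO, run to roughly half ATP consumption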
Pim3 kinase = Pim3 kinase (Homo sapiens, UniProt Q86V86); test: Pim3 ATP depletion assay; settings: read-out: PIM3 IC50
[1] = Pim1 ATP depletion assay, read-out: PIM1 IC50

Measured: IC50

Sequence of Pim1 kinase (P11309 whole entry): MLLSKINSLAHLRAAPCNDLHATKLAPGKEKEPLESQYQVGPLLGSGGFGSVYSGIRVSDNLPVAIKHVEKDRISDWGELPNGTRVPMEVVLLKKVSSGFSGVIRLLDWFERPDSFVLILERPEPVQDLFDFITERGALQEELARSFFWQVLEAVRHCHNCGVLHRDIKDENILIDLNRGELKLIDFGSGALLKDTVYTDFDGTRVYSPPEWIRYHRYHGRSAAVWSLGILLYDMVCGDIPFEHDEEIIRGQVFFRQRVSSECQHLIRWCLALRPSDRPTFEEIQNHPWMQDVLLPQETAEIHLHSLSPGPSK
Sequence of Pim2 kinase (Q9P1W9 whole entry): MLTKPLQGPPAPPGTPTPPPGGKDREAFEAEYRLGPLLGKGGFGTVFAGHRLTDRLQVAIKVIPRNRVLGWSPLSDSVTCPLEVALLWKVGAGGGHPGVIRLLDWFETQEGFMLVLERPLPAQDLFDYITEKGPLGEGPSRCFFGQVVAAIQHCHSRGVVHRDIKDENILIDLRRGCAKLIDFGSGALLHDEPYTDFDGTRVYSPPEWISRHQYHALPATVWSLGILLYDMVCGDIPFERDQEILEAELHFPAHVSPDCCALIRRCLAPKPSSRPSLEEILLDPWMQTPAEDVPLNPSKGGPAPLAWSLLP

Nc1nccc(-c2ccc(N)c(C(=O)Nc3cnccc3N3CCC[C@H](N)C3)n2)n1 [Example 728, 3-Amino-6-(2-amino-pyrimidin-4-yl)-pyridine-2-carboxylic acid (3-amino-3,4,5,6-tetrahydro-2H-[1,4′]bipyridinyl-3′-yl)-amide]
< 1000 nM: Pim1 kinase | Pim2 kinase | Pim3 kinase

Nc1cnc(-c2ccc(N)c(C(=O)Nc3cnccc3N3CCC[C@H](N)C3)n2)cn1 [Example 729, 3-Amino-6-(5-amino-pyrazin-2-yl)-pyridine-2-carboxylic acid (3-amino-3,4,5,6-tetrahydro-2H-[1,4′]bipyridinyl-3′-yl)-amide]
< 1000 nM: Pim1 kinase; [1] | Pim2 kinase | Pim3 kinase

Nc1ccc(-c2ccccn2)nc1C(=O)Nc1cnccc1N1CCC[C@H](N)C1 [Example 730, 5-Amino-[2,2′]bipyridinyl-6-carboxylic acid (3-amino-3,4,5,6-tetrahydro-2H-[1,4′]bi-pyridinyl-3′-yl)-amide]
< 1000 nM: Pim1 kinase; [1] | Pim2 kinase | Pim3 kinase

COc1nc(-c2ccc(N)c(C(=O)Nc3cnccc3N3CCC[C@H](N)C3)n2)cnc1N [Example 731, 3-Amino-6-(5-amino-6-methoxy-pyrazin-2-yl)-pyridine-2-carboxylic acid (3-amino-3,4,5,6-tetrahydro-2H-[1,4′]bi-pyridinyl-3′-yl)-amide]
< 1000 nM: Pim1 kinase; [1] | Pim2 kinase | Pim3 kinase

CC(C)NC(=O)c1ccc(F)c(-c2ccc(N)c(C(=O)Nc3cnccc3N3CC[C@@H](O)[C@H](N)C3)n2)c1F [Example 732, 3-Amino-6-(2,6-difluoro-3-isopropylcarbamoyl-phenyl)-pyridine-2-carboxylic acid (3-amino-4-hydroxy-3,4,5,6-tetra-hydro-2H-[1,4′]bipyridinyl-3′-yl)-amide]
< 1000 nM: Pim1 kinase; [1] | Pim2 kinase | Pim3 kinase

CC(C)NC(=O)c1ccc(F)c(-c2ccc(N)c(C(=O)Nc3cnccc3N3CC[C@@H](F)[C@H](N)C3)n2)c1F [Example 733, 3-Amino-6-(2,6-difluoro-3-isopropylcarbamoyl-phenyl)-pyridine-2-carboxylic acid (3-amino-4-fluoro-3,4,5,6-tetra-hydro-2H-[1,4′]bipyridinyl-3′-yl)-amide]
< 1000 nM: Pim1 kinase; [1] | Pim2 kinase | Pim3 kinase

Nc1ccc(-c2ncccc2F)nc1C(=O)Nc1cnccc1N1CCC(N)C(O)C1 (stereo not drawn) [Example 734, 5-Amino-3′-fluoro-[2,2′]bi-pyridinyl-6-carboxylic acid (4-amino-3-hydroxy-3,4,5,6-tetra-hydro-2H-[1,4′]bipyridinyl-3′-yl)-amide]
< 1000 nM: Pim1 kinase; [1] | Pim2 kinase | Pim3 kinase

Nc1ccc(-c2ncccc2F)nc1C(=O)Nc1cnccc1N1CCC(O)C(N)C1 (stereo not drawn) [Example 735, 5-Amino-3′-fluoro-[2,2′]bi-pyridinyl-6-carboxylic acid (3-amino-4-hydroxy-3,4,5,6-tetra-hydro-2H-[1,4′]bipyridinyl-3′-yl)-amide]
< 1000 nM: Pim1 kinase; [1] | Pim2 kinase | Pim3 kinase

Cc1ccnc(-c2nc(C(=O)Nc3cnccc3N3CCC[C@H](N)C3)c(N)cc2F)c1F [Example 737, 5-Amino-3,3′-difluoro-4′-methyl-[2,2′]bipyridinyl-6-carboxylic acid (3-amino-3,4,5,6-tetrahydro-2H-[1,4′]bi-pyridinyl-3′-yl)-amide]
< 1000 nM: Pim1 kinase; [1] | Pim2 kinase | Pim3 kinase

CCCOc1cncc(-c2nc(C(=O)Nc3cnccc3N3CCC[C@H](N)C3)c(N)cc2F)n1 [Example 738, 3-Amino-5-fluoro-6-(6-propoxy-pyrazin-2-yl)-pyridine-2-carboxylic acid (3-amino-3,4,5,6-tetrahydro-2H-[1,4′]bi-pyridinyl-3′-yl)-amide]
< 1000 nM: Pim1 kinase; [1] | Pim2 kinase | Pim3 kinase

CC(C)Oc1cncc(-c2nc(C(=O)Nc3cnccc3N3CCC[C@H](N)C3)c(N)cc2F)n1 [Example 739, 3-Amino-5-fluoro-6-(6-isopropoxy-pyrazin-2-yl)-pyridine-2-carboxylic acid (3-amino-3,4,5,6-tetrahydro-2H-[1,4′]bipyridinyl-3′-yl)-amide]
< 1000 nM: Pim1 kinase; [1] | Pim2 kinase | Pim3 kinase

CCOc1cncc(-c2nc(C(=O)Nc3cnccc3N3CCC[C@H](N)C3)c(N)cc2F)n1 [Example 740, 3-Amino-6-(6-ethoxy-pyrazin-2-yl)-5-fluoro-pyridine-2-carboxylic acid (3-amino-3,4,5,6-tetrahydro-2H-[1,4′]bi-pyridinyl-3′-yl)-amide]
< 1000 nM: Pim1 kinase; [1] | Pim2 kinase | Pim3 kinase

CC(C)COc1cncc(-c2nc(C(=O)Nc3cnccc3N3CCC[C@H](N)C3)c(N)cc2F)n1 [Example 741, 3Amino-5-fluoro-6-(6-isobutoxy-pyrazin-2-yl)-pyridine-2-carboxylic acid (3-amino-3,4,5,6-tetrahydro-2H-[1,4′]bipyridinyl-3′-yl)-amide]
< 1000 nM: Pim1 kinase; [1] | Pim2 kinase | Pim3 kinase

COC(=O)c1nc(-c2nc(C(=O)Nc3cnccc3N3CCC[C@H](N)C3)c(N)cc2F)c(F)cc1N [Example 742, 5,5′-Diamino-6′-(3-amino-3,4,5,6-tetrahydro-2H-[1,4′]bi-pyridinyl-3′-ylcarbamoyl)-3,3′-difluoro-[2,2′]bipyridinyl-6-carboxylic acid methyl ester]
< 1000 nM: Pim1 kinase; [1] | Pim2 kinase | Pim3 kinase

Nc1cc(F)c(-c2ncccc2Cl)nc1C(=O)Nc1cnccc1N1CCC[C@H](N)C1 [Example 743, 5-Amino-3′-chloro-3-fluoro-[2,2′]bipyridinyl-6-carboxylic acid (3-amino-3,4,5,6-tetra-hydro-2H-[1,4′]bipyridinyl-3′-yl)-amide]
< 1000 nM: Pim1 kinase; [1] | Pim2 kinase | Pim3 kinase

Cc1ccc(F)c(-c2nc(C(=O)Nc3cnccc3N3CCC[C@H](N)C3)c(N)cc2F)n1 [Example 745, 5-Amino-3,3′-difluoro-6′-methyl-[2,2′]bipyridinyl-6-carboxylic acid (3-amino-3,4,5,6-tetrahydro-2H-[1,4′]bi-pyridinyl-3′-yl)-amide]
< 1000 nM: Pim1 kinase; [1] | Pim2 kinase | Pim3 kinase

Cc1cc(-c2ccncc2NC(=O)c2nc(-c3ncccc3F)ccc2N)cc(N)n1 [Example 746, 5-Amino-3′-fluoro-[2,2′]bi-pyridinyl-6-carboxylic acid (2′-amino-6′-methyl-[4,4′]bi-pyridinyl-3-yl)-amide]
< 1000 nM: Pim1 kinase; [1] | Pim2 kinase | Pim3 kinase

CCCOc1cncc(-c2ccc(N)c(C(=O)Nc3cnccc3N3CCC[C@H](N)C3)n2)n1 [Example 747, 3-Amino-6-(6-propoxy-pyrazin-2-yl)-pyridine-2-carboxylic acid (3-amino-3,4,5,6-tetrahydro-2H-[1,4′]bipyridinyl-3′-yl)-amide]
< 1000 nM: Pim1 kinase; [1] | Pim2 kinase | Pim3 kinase

CC(C)Oc1cncc(-c2ccc(N)c(C(=O)Nc3cnccc3N3CCC[C@H](N)C3)n2)n1 [Example 748, 3-Amino-6-(6-isopropoxy-pyrazin-2-yl)-pyridine-2-carboxylic acid (3-amino-3,4,5,6-tetrahydro-2H-[1,4′]bi-pyridinyl-3′-yl)-amide]
< 1000 nM: Pim1 kinase; [1] | Pim2 kinase | Pim3 kinase

CCOc1cncc(-c2ccc(N)c(C(=O)Nc3cnccc3N3CCC[C@H](N)C3)n2)n1 [Example 749, 3-Amino-6-(6-ethoxy-pyrazin-2-yl)-pyridine-2-carboxylic acid (3-amino-3,4,5,6-tetrahydro-2H-[1,4′]bipyridinyl-3′-yl)-amide]
< 1000 nM: Pim1 kinase; [1] | Pim2 kinase | Pim3 kinase

Nc1ccc(-c2cncc(OCc3ccccc3)n2)nc1C(=O)Nc1cnccc1N1CCC[C@H](N)C1 [Example 750, 3-Amino-6-(6-benzyloxy-pyrazin-2-yl)-pyridine-2-carboxylic acid (3-amino-3,4,5,6-tetrahydro-2H-[1,4′]bi-pyridinyl-3′-yl)-amide]
< 1000 nM: Pim1 kinase; [1] | Pim2 kinase | Pim3 kinase

Nc1cc(F)c(-c2c(F)ccc(O)c2F)nc1C(=O)Nc1cnccc1N1CCC[C@H](N)C1 [Example 751, 3-Amino-N-(4-((S)-3-aminopiperidin-1-yl)pyridin-3-yl)-6-(2,6-difluoro-3-hydroxyphenyl)-5-fluoropicolinamide]
< 1000 nM: Pim1 kinase; [1] | Pim2 kinase | Pim3 kinase

Nc1ccc(-c2c(F)cccc2F)nc1C(=O)Nc1cnccc1N1CC[C@@H](O)[C@@H](N)C1 [Example 752, 3-Amino-6-(2,6-difluoro-phenyl)-pyridine-2-carboxylic acid (3-amino-4-hydroxy-3,4,5,6-tetra-hydro-2H-[1,4′]bipyridinyl-3′-yl)-amide]
< 1000 nM: Pim1 kinase | Pim2 kinase | Pim3 kinase

CC(C)CCc1ccc(F)c(-c2ccc(N)c(C(=O)Nc3cnccc3N3CCC[C@H](N)C3)n2)c1 [Example 755, (S)-3-amino-N-(4-(3-aminopiperidin-1-yl)pyridin-3-yl)-6-(2-fluoro-5-isopentylphenyl)picolinamide]
< 1000 nM: Pim1 kinase; [1] | Pim2 kinase | Pim3 kinase
